From patent US9695154B2, “Heteroaryl inhibitors of sumo activating enzyme” (MILLENNIUM PHARMACEUTICALS, INC., priority 2013, dated 2017)

Target: T1, recombinant human SAE enzyme (Homo sapiens, UniProt Q9UBT2)
T1 sequence (Q9UBT2 1-640): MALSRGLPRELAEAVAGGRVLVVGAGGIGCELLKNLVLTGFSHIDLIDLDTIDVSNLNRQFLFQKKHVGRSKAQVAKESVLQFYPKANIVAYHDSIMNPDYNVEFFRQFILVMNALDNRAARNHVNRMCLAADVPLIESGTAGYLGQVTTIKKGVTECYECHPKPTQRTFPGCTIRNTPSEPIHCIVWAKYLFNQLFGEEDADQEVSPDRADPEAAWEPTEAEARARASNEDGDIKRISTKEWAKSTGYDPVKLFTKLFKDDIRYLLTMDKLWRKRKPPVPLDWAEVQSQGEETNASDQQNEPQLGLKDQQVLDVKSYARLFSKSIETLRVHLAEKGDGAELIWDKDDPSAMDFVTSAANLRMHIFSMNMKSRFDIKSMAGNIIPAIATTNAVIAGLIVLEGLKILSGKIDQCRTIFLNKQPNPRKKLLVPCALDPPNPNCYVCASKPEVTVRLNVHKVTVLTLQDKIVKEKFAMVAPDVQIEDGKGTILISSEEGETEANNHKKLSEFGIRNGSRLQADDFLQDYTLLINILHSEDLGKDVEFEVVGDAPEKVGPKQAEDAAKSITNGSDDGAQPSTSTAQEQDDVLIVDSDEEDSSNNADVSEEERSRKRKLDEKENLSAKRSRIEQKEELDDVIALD
T1 sequence (Q9UBE0 1-346 partner): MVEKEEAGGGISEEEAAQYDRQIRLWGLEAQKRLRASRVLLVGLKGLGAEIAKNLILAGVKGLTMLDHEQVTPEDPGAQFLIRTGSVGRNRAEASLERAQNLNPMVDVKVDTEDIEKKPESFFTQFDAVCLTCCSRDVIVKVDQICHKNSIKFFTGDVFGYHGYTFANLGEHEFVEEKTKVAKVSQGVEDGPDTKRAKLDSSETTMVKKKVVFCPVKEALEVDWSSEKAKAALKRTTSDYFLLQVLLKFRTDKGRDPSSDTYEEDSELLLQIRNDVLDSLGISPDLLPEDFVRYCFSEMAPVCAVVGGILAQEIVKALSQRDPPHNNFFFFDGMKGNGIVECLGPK
Assay: SAE HTRF Enzyme Assay
Assay type: biochemical
Settings: for IC50: class symbols A-C; for inhibition at 0.111 µM: compound concentration 0.111 μM, read-out: Percent Inhibition
Summary of the method: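 SAE 0.11 nM; ATP 0.5 μM; Sumo-Flag 0.125 μM; Ubc9-GST 0.01 μM; 250 μM GSH, 5 mM MgCl2, pH 7.5. 105 min, 24° C. EDTA/KF stop plus Eu/APC antibodies, 2 h, TR-FRET. % inhibition or IC50.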

SMILES	IC50	inhibition at 0.111 µM
NS(=O)(=O)OC[C@H]1C[C@@H](Nc2ncncc2C(=O)c2ccn(Cc3ccc(F)c(Br)c3)c2)C[C@@H]1O [Compound I-279, {(1R,2S,4R)-4-[(5-{[1-(3-bromo-4-fluorobenzyl)-1H-pyrrol-3-yl]carbonyl}pyrimidin-4-yl)amino]-2-hydroxycyclopentyl}methyl sulfamate]	< 10 nM	98%
NS(=O)(=O)OC[C@H]1C[C@@H](Nc2ncncc2C(=O)c2ccn(Cc3ccc(Cl)s3)n2)C[C@@H]1O [Compound I-280, [(1R,2S,4R)-4-{[5-({1-[(5-chloro-2-thienyl)methyl]-1H-pyrazol-3-yl}carbonyl)pyrimidin-4-yl]amino}-2-hydroxycyclopentyl]methyl sulfamate]	< 10 nM	99%
CSCn1ccc(C(=O)c2cncnc2N[C@@H]2C[C@H](COS(N)(=O)=O)[C@@H](O)C2)n1 [Compound I-281, [(1R,2S,4R)-2-hydroxy-4-{[5-({1-[(methylsulfanyl)methyl]-1H-pyrazol-3-yl}carbonyl)pyrimidin-4-yl]amino}cyclopentyl]methyl sulfamate]	100 to 1000 nM	25%
NS(=O)(=O)OC[C@H]1C[C@@H](Nc2ncncc2C(=O)c2ccn(Cc3cccc(Br)c3F)n2)C[C@@H]1O [Compound I-282, {(1R,2S,4R)-4-[(5-{[1-(3-bromo-2-fluorobenzyl)-1H-pyrazol-3-yl]carbonyl}pyrimidin-4-yl)amino]-2-hydroxycyclopentyl}methyl sulfamate]	< 10 nM	100%
NS(=O)(=O)OC[C@H]1C[C@@H](Nc2ncncc2C(=O)c2ccn(CC(=O)c3cccc(Cl)c3)n2)[C@H](O)[C@@H]1O [Compound I-283, [(1R,2R,3S,4R)-4-{[5-({1-[2-(3-chlorophenyl)-2-oxoethyl]-1H-pyrazol-3-yl}carbonyl)pyrimidin-4-yl]amino}-2,3-dihydroxyoyclopentyl]methyl sulfamate]	< 10 nM	97%
NS(=O)(=O)OC[C@H]1C[C@@H](Nc2ncncc2C(=O)c2ccn(Cc3cccc(Br)n3)n2)[C@H](O)[C@@H]1O [Compound I-284, [(1R,2R,3S,4R)-4-{[5-({1-[(6-bromopyridin-2-yl)methyl]-1H-pyrazol-3-yl}carbonyl)pyrimidin-4-yl]amino}-2,3-dihydroxycyclopentyl]methyl sulfamate]	< 10 nM	100%
NS(=O)(=O)OC[C@H]1C[C@@H](Nc2ncncc2C(=O)c2ccn(Cc3csc4ccc(Cl)cc34)n2)[C@H](O)[C@@H]1O [Compound I-285, [(1R,2R,3S,4R)-4-{[5-({1-[(5-chloro-1-benzothiophen-3-yl)methyl]-1H-pyrazol-3-yl}carbonyl)pyrimidin-4-yl]amino}-2,3-dihydroxycyclopentyl]methyl sulfamate]	< 10 nM	99%
NS(=O)(=O)OC[C@H]1C[C@@H](Nc2ncncc2C(=O)c2ccn(Cc3c(F)cc(F)cc3F)n2)C[C@@H]1O [Compound I-286, {(1R,2S,4R)-2-hydroxy-4-[(5-{[1-(2,4,6-trifluorobenzyl)-1H-pyrazol-3-yl]carbonyl}pyrimidin-4-yl)amino]cyclopentyl}methyl sulfamate]	< 10 nM	93%
NS(=O)(=O)OC[C@H]1C[C@@H](Nc2ncncc2C(=O)c2ccn(CC#CC3CC3)n2)C[C@@H]1O [Compound I-287, {(1R,2S,4R)-4-[(5-{[1-(3-cyclopropylprop-2-yn-1-yl)-1H-pyrazol-3-yl]carbonyl}pyrimidin-4-yl)amino]-2-hydroxycyclopentyl}methyl sulfamate]	< 10 nM	95%
NS(=O)(=O)OC[C@H]1C[C@@H](Nc2ncncc2C(=O)c2ccn(Cc3ccc(Cl)c(C(F)(F)F)c3)n2)C[C@@H]1O [Compound I-288, [(1R,2S,4R)-4-{[5-({1-[4-chloro-3-(trifluoromethyl)benzyl]-1H-pyrazol-3-yl}carbonyl)pyrimidin-4-yl]amino}-2-hydroxycyclopentyl]methyl sulfamate]	< 10 nM	97%
NS(=O)(=O)OC[C@H]1C[C@@H](Nc2ncncc2C(=O)c2ccn(Cc3cc(Cl)ccc3Cl)n2)C[C@@H]1O [Compound I-289, {(1R,2S,4R)-4-[(5-{[1-(2,5-dichlorobenzyl)-1H-pyrazol-3-yl]carbonyl}pyrimidin-4-yl)amino]-2-hydroxycyclopentyl}methyl sulfamate]	< 10 nM	98%
NS(=O)(=O)OC[C@H]1C[C@@H](Nc2ncncc2C(=O)c2ccn(Cc3ccc(F)c(Br)c3)n2)[C@H](O)[C@@H]1O [Compound I-290, {(1R,2R,3S,4R)-4-[(5-{[1-(3-bromo-4-fluorobenzyl)-1H-pyrazol-3-yl]carbonyl}pyrimidin-4-yl)amino]-2,3-dihydroxycyclopentyl}methyl sulfamate]	< 10 nM	99%
C=CCn1ccc(C(=O)c2cncnc2N[C@@H]2C[C@H](COS(N)(=O)=O)[C@@H](O)C2)c1 [Compound I-291, [(1R,2S,4R)-4-({5-[(1-allyl-1H-pyrrol-3-yl)carbonyl]pyrimidin-4-yl}amino)-2-hydroxycyclopentyl]methyl sulfamate]	10 to 100 nM	79%
NS(=O)(=O)OC[C@H]1C[C@@H](Nc2ncncc2C(=O)c2ccn(Cc3cccc(I)c3)n2)C[C@@H]1O [Compound I-292, {(1R,2S,4R)-2-Hydroxy-4-[(5-{[1-(3-iodobenzyl)-1H-pyrazol-3-yl]carbonyl}pyrimidin-4-yl)amino]cyclopentyl}methyl sulfamate]	< 10 nM	98%
Cc1cc(C(=O)c2cncnc2N[C@@H]2C[C@H](COS(N)(=O)=O)[C@@H](O)[C@@H]2F)nn1Cc1cccc(I)c1 [Compound I-294, {(1R,2R,3R,4R)-3-fluoro-2-hydroxy-4-[(5-{[1-(3-iodobenzyl)-5-methyl-1H-pyrazol-3-yl]carbonyl}pyrimidin-4-yl)amino]cyclopentyl}methyl sulfamate]	< 10 nM	100%
COc1cccc(Cn2ccc(C(=O)c3cncnc3N[C@@H]3C[C@H](COS(N)(=O)=O)[C@@H](O)C3)n2)n1 [Compound I-295, [(1R,2S,4R)-2-hydroxy-4-{[5-({1-[(6-methoxypyridin-2-yl)methyl]-1H-pyrazol-3-yl}carbonyl)pyrimidin-4-yl]amino}cyclopentyl]methyl sulfamate]	< 10 nM	96%
NS(=O)(=O)OC[C@H]1C[C@@H](Nc2ncncc2C(=O)c2ccn(Cc3ccc(Cl)o3)c2)[C@@H](F)[C@@H]1O [Compound I-296, [(1R,2R,3R,4R)-4-{[5-({1-[(5-chloro-2-furyl)methyl]-1H-pyrrol-3-yl}carbonyl)pyrimidin-4-yl]amino}-3-fluoro-2-hydroxycyclopentyl]methyl sulfamate]	< 10 nM	100%
Cc1cc(Cn2ccc(C(=O)c3cncnc3N[C@@H]3C[C@H](COS(N)(=O)=O)[C@@H](O)[C@@H]3F)c2)no1 [Compound I-297, [(1R,2R,3R,4R)-3-fluoro-2-hydroxy-4-{[5-({1-[(5-methylisoxazol-3-yl)methyl]-1H-pyrrol-3-yl}carbonyl)pyrimidin-4-yl]amino}cyclopentyl]methyl sulfamate]	< 10 nM	97%
